Measurements taken from PubChem BioAssay AID248 (DTP/NCI, 2004).
Where “and” joins values, the source holds several entries; their conditions need not be identical. Equal values may be shown once. Toxic doses and inconclusive results are not listed.

System: L1210 leukemia ip in BDF1 mice, survival T/C
Test: NCI In Vivo Anticancer Drug Screen. Data for tumor model L1210 Leukemia (intraperitoneal) in B6D2F1 (BDF1) mice
Settings: higher = longer survival
Procedure, shortened: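 Value reflects the ratio of survival in compound-treated mice to survival in vehicle-treated controls, with both groups carrying the same transplanted tumor.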

For `CC[n+]1ccc(Nc2ccc(NC(=O)c3ccc(Nc4cc[n+](CC)c5ccc(N)cc45)cc3)cc2)cc1`, the T/C (endpoint: mean survival time, dose: 0.12 mg/kg/injection, schedule: Q01DX005 (iv), vehicle: water) was 101 % of control, the T/C (endpoint: mean survival time, dose: 0.12 mg/kg/injection, schedule: Q04DX003 (iv), vehicle: water) was 105 % of control and the T/C (endpoint: mean survival time, dose: 0.25 mg/kg/injection, schedule: Q01DX005 (iv), vehicle: water) was 105 % of control. The T/C (endpoint: mean survival time, dose: 0.25 mg/kg/injection, schedule: Q03HX024 (ip), vehicle: water) was 113 % of control, the T/C (endpoint: mean survival time, dose: 0.25 mg/kg/injection, schedule: Q04DX003 (iv), vehicle: water) was 102 % of control and the T/C (endpoint: mean survival time, dose: 0.5 mg/kg/injection, schedule: Q01DX005 (iv), vehicle: water) was 100 % of control and 103 % of control. The T/C (endpoint: mean survival time, dose: 0.5 mg/kg/injection, schedule: Q01DX009 (sc), vehicle: water) was 94 % of control, the T/C (endpoint: mean survival time, dose: 0.5 mg/kg/injection, schedule: Q03HX024 (ip), vehicle: water) was 157 % of control and the T/C (endpoint: mean survival time, dose: 0.5 mg/kg/injection, schedule: Q03HX024 (oral), vehicle: water) was 97 % of control. The T/C (endpoint: mean survival time, dose: 0.5 mg/kg/injection, schedule: Q04DX003 (iv), vehicle: water) was 101 % of control, the T/C (endpoint: mean survival time, dose: 0.75 mg/kg/injection, schedule: Q01DX009 (ip), vehicle: saline) was 152 % of control and 201 % of control and the T/C (endpoint: mean survival time, dose: 1.0 mg/kg/injection, schedule: Q01DX005 (iv), vehicle: water) was 115 % of control. For the same compound, the T/C (endpoint: mean survival time, dose: 1.0 mg/kg/injection, schedule: Q01DX009 (ip), vehicle: water) was 180 % of control and 211 % of control, the T/C (endpoint: mean survival time, dose: 1.0 mg/kg/injection, schedule: Q01DX009 (oral), vehicle: water) was 103 % of control and the T/C (endpoint: mean survival time, dose: 1.0 mg/kg/injection, schedule: Q01DX009 (sc), vehicle: water) was 112 % of control and 122 % of control. The T/C (endpoint: mean survival time, dose: 1.0 mg/kg/injection, schedule: Q03HX016 (ip), vehicle: water) was 156 % of control, the T/C (endpoint: mean survival time, dose: 1.0 mg/kg/injection, schedule: Q03HX024 (ip), vehicle: water) was 186 % of control and 187 % of control and 208 % of control and the T/C (endpoint: mean survival time, dose: 1.0 mg/kg/injection, schedule: Q03HX024 (oral), vehicle: water) was 96 % of control and 101 % of control. The T/C (endpoint: mean survival time, dose: 1.0 mg/kg/injection, schedule: Q03HX024 (sc), vehicle: water) was 164 % of control, the T/C (endpoint: mean survival time, dose: 1.0 mg/kg/injection, schedule: Q04DX003 (iv), vehicle: water) was 103 % of control and the T/C (endpoint: mean survival time, dose: 1.5 mg/kg/injection, schedule: Q01DX009 (ip), vehicle: saline) was 160 % of control and 171 % of control. The T/C (endpoint: mean survival time, dose: 1.9 mg/kg/injection, schedule: Q01DX009 (ip), vehicle: saline) was 281 % of control, the T/C (endpoint: mean survival time, dose: 2.0 mg/kg/injection, schedule: Q01DX005 (iv), vehicle: water) was 103 % of control and the T/C (endpoint: mean survival time, dose: 2.0 mg/kg/injection, schedule: Q01DX009 (oral), vehicle: water) was 103 % of control. The T/C (endpoint: mean survival time, dose: 2.0 mg/kg/injection, schedule: Q01DX009 (sc), vehicle: water) was 189 % of control and 206 % of control, the T/C (endpoint: mean survival time, dose: 2.0 mg/kg/injection, schedule: Q03HX016 (ip), vehicle: water) was 188 % of control and the T/C (endpoint: mean survival time, dose: 2.0 mg/kg/injection, schedule: Q03HX024 (ip), vehicle: water) was 123 % of control and 218 % of control. For the same compound, the T/C (endpoint: mean survival time, dose: 2.0 mg/kg/injection, schedule: Q03HX024 (oral), vehicle: water) was 97 % of control and 100 % of control, the T/C (endpoint: mean survival time, dose: 2.0 mg/kg/injection, schedule: Q03HX024 (sc), vehicle: water) was 211 % of control and the T/C (endpoint: mean survival time, dose: 2.0 mg/kg/injection, schedule: Q04DX003 (ip), vehicle: water) was 113 % of control and 120 % of control. The T/C (endpoint: mean survival time, dose: 2.0 mg/kg/injection, schedule: Q04DX003 (iv), vehicle: water) was 105 % of control, the T/C (endpoint: mean survival time, dose: 3.0 mg/kg/injection, schedule: Q01DX009 (ip), vehicle: saline) was 274 % of control and the T/C (endpoint: mean survival time, dose: 3.2 mg/kg/injection, schedule: Q01DX009 (ip), vehicle: saline) was 313 % of control. For the same compound, the T/C (endpoint: mean survival time, dose: 4.0 mg/kg/injection, schedule: Q01DX001 (ip), vehicle: water) was 111 % of control, the T/C (endpoint: mean survival time, dose: 4.0 mg/kg/injection, schedule: Q01DX009 (oral), vehicle: water) was 96 % of control and the T/C (endpoint: mean survival time, dose: 4.0 mg/kg/injection, schedule: Q01DX009 (sc), vehicle: water) was 116 % of control and 219 % of control. For the same compound, the T/C (endpoint: mean survival time, dose: 4.0 mg/kg/injection, schedule: Q03HX016 (ip), vehicle: water) was 271 % of control, the T/C (endpoint: mean survival time, dose: 4.0 mg/kg/injection, schedule: Q03HX024 (ip), vehicle: water) was 112 % of control and the T/C (endpoint: mean survival time, dose: 4.0 mg/kg/injection, schedule: Q03HX024 (oral), vehicle: water) was 100 % of control and 101 % of control. The T/C (endpoint: mean survival time, dose: 4.0 mg/kg/injection, schedule: Q08DX002 (ip), vehicle: water) was 107 % of control, the T/C (endpoint: mean survival time, dose: 4.0 mg/kg/injection, schedule: Q08DX002 (oral), vehicle: water) was 101 % of control and the T/C (endpoint: mean survival time, dose: 5.0 mg/kg/injection, schedule: Q01DX009 (oral), vehicle: water) was 103 % of control. The T/C (endpoint: mean survival time, dose: 6.0 mg/kg/injection, schedule: Q01DX009 (ip), vehicle: saline) was 271 % of control, the T/C (endpoint: mean survival time, dose: 8.0 mg/kg/injection, schedule: Q01DX009 (ip), vehicle: water) was 96 % of control and the T/C (endpoint: mean survival time, dose: 8.0 mg/kg/injection, schedule: Q01DX009 (oral), vehicle: water) was 104 % of control (2×) and 107 % of control. The T/C (endpoint: mean survival time, dose: 8.0 mg/kg/injection, schedule: Q01DX009 (sc), vehicle: water) was 101 % of control and 117 % of control, the T/C (endpoint: mean survival time, dose: 8.0 mg/kg/injection, schedule: Q03HX024 (oral), vehicle: water) was 106 % of control and the T/C (endpoint: mean survival time, dose: 8.0 mg/kg/injection, schedule: Q03HX024 (sc), vehicle: water) was 104 % of control. For the same compound, the T/C (endpoint: mean survival time, dose: 8.0 mg/kg/injection, schedule: Q04DX003 (ip), vehicle: water) was 160 % of control and 164 % of control and 175 % of control, the T/C (endpoint: mean survival time, dose: 9.0 mg/kg/injection, schedule: Q01DX009 (ip), vehicle: saline) was 109 % of control and the T/C (endpoint: mean survival time, dose: 10.0 mg/kg/injection, schedule: Q01DX009 (oral), vehicle: water) was 103 % of control. The T/C (endpoint: mean survival time, dose: 16.0 mg/kg/injection, schedule: Q01DX009 (ip), vehicle: water) was 94 % of control, the T/C (endpoint: mean survival time, dose: 16.0 mg/kg/injection, schedule: Q01DX009 (oral), vehicle: water) was 101 % of control and the T/C (endpoint: mean survival time, dose: 16.0 mg/kg/injection, schedule: Q04DX003 (ip), vehicle: water) was 177 % of control and 190 % of control and 245 % of control. For the same compound, the T/C (endpoint: mean survival time, dose: 18.0 mg/kg/injection, schedule: Q01DX001 (ip), vehicle: saline) was 157 % of control, the T/C (endpoint: mean survival time, dose: 20.0 mg/kg/injection, schedule: Q01DX009 (oral), vehicle: water) was 100 % of control and the T/C (endpoint: mean survival time, dose: 25.0 mg/kg/injection, schedule: Q01DX001 (ip), vehicle: saline) was 120 % of control. For the same compound, the T/C (endpoint: mean survival time, dose: 32.0 mg/kg/injection, schedule: Q01DX009 (oral), vehicle: water) was 103 % of control and 111 % of control, the T/C (endpoint: mean survival time, dose: 32.0 mg/kg/injection, schedule: Q03HX008 (ip), vehicle: water) was 190 % of control and the T/C (endpoint: mean survival time, dose: 40.0 mg/kg/injection, schedule: Q01DX009 (oral), vehicle: water) was 105 % of control. The T/C (endpoint: mean survival time, dose: 64.0 mg/kg/injection, schedule: Q01DX009 (oral), vehicle: water) was 100 % of control and 102 % of control, the T/C (endpoint: mean survival time, dose: 80.0 mg/kg/injection, schedule: Q01DX009 (oral), vehicle: water) was 110 % of control and the T/C (endpoint: median survival time, dose: 0.5 mg/kg/injection, schedule: Q03HX024 (ip), vehicle: water) was 120 % of control and 122 % of control. The T/C (endpoint: median survival time, dose: 1.3 mg/kg/injection, schedule: Q03HX024 (ip), vehicle: water) was 190 % of control and 191 % of control, the T/C (endpoint: median survival time, dose: 2.2 mg/kg/injection, schedule: Q01DX009 (ip), vehicle: water) was 195 % of control and 198 % of control and the T/C (endpoint: median survival time, dose: 2.2 mg/kg/injection, schedule: Q03HX024 (ip), vehicle: water) was 235 % of control and 247 % of control. For the same compound, the T/C (endpoint: median survival time, dose: 3.6 mg/kg/injection, schedule: Q01DX009 (ip), vehicle: water) was 225 % of control and 227 % of control, the T/C (endpoint: median survival time, dose: 6.0 mg/kg/injection, schedule: Q01DX009 (ip), vehicle: water) was 170 % of control and 172 % of control and the T/C (endpoint: median survival time, dose: 10.0 mg/kg/injection, schedule: Q01DX009 (ip), vehicle: water) was 120 % of control and 122 % of control.
`Nc1nc(N)c2cc(NCc3ccc(F)cc3)ccc2n1` was tested, and the T/C (endpoint: mean survival time, dose: 3.13 mg/kg/injection, schedule: Q01DX009 (ip), vehicle: saline with Tween-80) was 90 % of control, the T/C (endpoint: mean survival time, dose: 6.25 mg/kg/injection, schedule: Q01DX009 (ip), vehicle: saline with Tween-80) was 92 % of control and the T/C (endpoint: mean survival time, dose: 6.25 mg/kg/injection, schedule: Q04DX003 (ip), vehicle: saline with Tween-80) was 100 % of control. For the same compound, the T/C (endpoint: mean survival time, dose: 12.5 mg/kg/injection, schedule: Q01DX009 (ip), vehicle: saline with Tween-80) was 97 % of control.
